# From ChEMBL document CHEMBL4622979, “Non-rigid Diarylmethyl Analogs of Baloxavir as Cap-Dependent Endonuclease Inhibitors of Influenza Viruses” (J Med Chem, 2020)
# Legend:
# [1] = Tmax in CD1 mouse plasma assessed as baloxavir acid level at 15 mg/kg, po administered as single dose measured up to 24 hrs by LC-MS/MS analysis; assay type: ADME, organism-based; conditions: in vivo
# [2] = Tmax in CD1 mouse liver assessed as baloxavir acid level at 15 mg/kg, po administered as single dose measured up to 24 hrs by LC-MS/MS analysis; assay type: ADME, organism-based; conditions: in vivo
# [3] = Elimination rate constant in CD1 mouse heart assessed as baloxavir acid level at 15 mg/kg, po administered as single dose measured up to 24 hrs by LC-MS/MS analysis; assay type: ADME, organism-based; conditions: in vivo
# [4] = Cmax in CD1 mouse heart assessed as baloxavir acid level at 15 mg/kg, po administered as single dose measured up to 24 hrs by LC-MS/MS analysis; assay type: ADME, organism-based; parameters: dose 15 mg/kg, route oral; conditions: in vivo
# [5] = Tmax in CD1 mouse lung assessed as baloxavir acid level at 15 mg/kg, po administered as single dose measured up to 24 hrs by LC-MS/MS analysis; assay type: ADME, organism-based; conditions: in vivo
# [6] = Cmax in CD1 mouse trachea assessed as baloxavir acid level at 15 mg/kg, po administered as single dose measured after 4 hrs by LC-MS/MS analysis; assay type: ADME, organism-based; parameters: dose 15 mg/kg, route oral; conditions: in vivo
# [7] = Tmax in CD1 mouse small intestine assessed as baloxavir acid level at 15 mg/kg, po administered as single dose measured up to 24 hrs by LC-MS/MS analysis; assay type: ADME, organism-based; conditions: in vivo
# [8] = Tmax in CD1 mouse muscle assessed as baloxavir acid level at 15 mg/kg, po administered as single dose measured up to 24 hrs by LC-MS/MS analysis; assay type: ADME, organism-based, Muscle tissue; conditions: in vivo
# [9] = Acute toxicity in CD1 mouse assessed as effect on intestine at 2000 mg/kg, po measured after 2 weeks by macroscopic analysis; assay type: organism-based; conditions: in vivo, 336 h
# [10] = Tmax in CD1 mouse plasma assessed as (12aR)-12-(Diphenylmethyl)-7-hydroxy-3,4,12,12a-tetrahydro-1H-[1,4]oxazino[3,4-c]pyrido[2,1-f ][1,2,4]triazine-6,8-dione level at 15 mg/kg, po administered as single dose measured up to 24 hrs by LC-MS/MS analysis; assay type: ADME, organism-based; conditions: in vivo
# [11] = MRTlast in CD1 mouse blood assessed as (12aR)-12-(Diphenylmethyl)-7-hydroxy-3,4,12,12a-tetrahydro-1H-[1,4]oxazino[3,4-c]pyrido[2,1-f ][1,2,4]triazine-6,8-dione level at 15 mg/kg, po administered as single dose measured up to 24 hrs by LC-MS/MS analysis; assay type: ADME, organism-based; conditions: in vivo
# [12] = Elimination rate constant in CD1 mouse kidney assessed as (12aR)-12-(Diphenylmethyl)-7-hydroxy-3,4,12,12a-tetrahydro-1H-[1,4]oxazino[3,4-c]pyrido[2,1-f ][1,2,4]triazine-6,8-dione level at 15 mg/kg, po administered as single dose measured up to 24 hrs by LC-MS/MS analysis; assay type: ADME, organism-based; conditions: in vivo
# [13] = Tmax in CD1 mouse kidney assessed as (12aR)-12-(Diphenylmethyl)-7-hydroxy-3,4,12,12a-tetrahydro-1H-[1,4]oxazino[3,4-c]pyrido[2,1-f ][1,2,4]triazine-6,8-dione level at 15 mg/kg, po administered as single dose measured up to 24 hrs by LC-MS/MS analysis; assay type: ADME, organism-based; conditions: in vivo
# [14] = Cmax in CD1 mouse kidney assessed as (12aR)-12-(Diphenylmethyl)-7-hydroxy-3,4,12,12a-tetrahydro-1H-[1,4]oxazino[3,4-c]pyrido[2,1-f ][1,2,4]triazine-6,8-dione level at 15 mg/kg, po administered as single dose measured up to 24 hrs by LC-MS/MS analysis; assay type: ADME, organism-based; parameters: dose 15 mg/kg, route oral; conditions: in vivo
# [15] = AUCinfinity in CD1 mouse kidney assessed as (12aR)-12-(Diphenylmethyl)-7-hydroxy-3,4,12,12a-tetrahydro-1H-[1,4]oxazino[3,4-c]pyrido[2,1-f ][1,2,4]triazine-6,8-dione level at 15 mg/kg, po administered as single dose measured up to 24 hrs by LC-MS/MS analysis; assay type: ADME, organism-based; parameters: dose 15 mg/kg, time infinity, route oral; conditions: in vivo
# [16] = Half life in CD1 mouse heart assessed as (12aR)-12-(Diphenylmethyl)-7-hydroxy-3,4,12,12a-tetrahydro-1H-[1,4]oxazino[3,4-c]pyrido[2,1-f ][1,2,4]triazine-6,8-dione level at 15 mg/kg, po administered as single dose measured up to 24 hrs by LC-MS/MS analysis; assay type: ADME, organism-based; conditions: in vivo
# [17] = AUCinfinity in CD1 mouse lung assessed as (12aR)-12-(Diphenylmethyl)-7-hydroxy-3,4,12,12a-tetrahydro-1H-[1,4]oxazino[3,4-c]pyrido[2,1-f ][1,2,4]triazine-6,8-dione level at 15 mg/kg, po administered as single dose measured up to 24 hrs by LC-MS/MS analysis; assay type: ADME, organism-based; parameters: dose 15 mg/kg, route oral, time infinity; conditions: in vivo
# [18] = Elimination rate constant in CD1 mouse small intestine assessed as (12aR)-12-(Diphenylmethyl)-7-hydroxy-3,4,12,12a-tetrahydro-1H-[1,4]oxazino[3,4-c]pyrido[2,1-f ][1,2,4]triazine-6,8-dione level at 15 mg/kg, po administered as single dose measured up to 24 hrs by LC-MS/MS analysis; assay type: ADME, organism-based; conditions: in vivo
# [19] = Half life in CD1 mouse brain assessed as (12aR)-12-(Diphenylmethyl)-7-hydroxy-3,4,12,12a-tetrahydro-1H-[1,4]oxazino[3,4-c]pyrido[2,1-f ][1,2,4]triazine-6,8-dione level at 15 mg/kg, po administered as single dose measured up to 24 hrs by LC-MS/MS analysis; assay type: ADME, organism-based; conditions: in vivo
# [20] = AUClast in CD1 mouse brain assessed as (12aR)-12-(Diphenylmethyl)-7-hydroxy-3,4,12,12a-tetrahydro-1H-[1,4]oxazino[3,4-c]pyrido[2,1-f ][1,2,4]triazine-6,8-dione level at 15 mg/kg, po administered as single dose measured up to 24 hrs by LC-MS/MS analysis; assay type: ADME, organism-based; conditions: in vivo
# [21] = AUCinfinity in CD1 mouse spleen assessed as (12aR)-12-(Diphenylmethyl)-7-hydroxy-3,4,12,12a-tetrahydro-1H-[1,4]oxazino[3,4-c]pyrido[2,1-f ][1,2,4]triazine-6,8-dione level at 15 mg/kg, po administered as single dose measured up to 24 hrs by LC-MS/MS analysis; assay type: ADME, organism-based; parameters: dose 15 mg/kg, route oral, time infinity; conditions: in vivo
# [22] = MRTlast in CD1 mouse spleen assessed as (12aR)-12-(Diphenylmethyl)-7-hydroxy-3,4,12,12a-tetrahydro-1H-[1,4]oxazino[3,4-c]pyrido[2,1-f ][1,2,4]triazine-6,8-dione level at 15 mg/kg, po administered as single dose measured up to 24 hrs by LC-MS/MS analysis; assay type: ADME, organism-based; conditions: in vivo
# [23] = Tmax in CD1 mouse muscle assessed as (12aR)-12-(Diphenylmethyl)-7-hydroxy-3,4,12,12a-tetrahydro-1H-[1,4]oxazino[3,4-c]pyrido[2,1-f ][1,2,4]triazine-6,8-dione level at 15 mg/kg, po administered as single dose measured up to 24 hrs by LC-MS/MS analysis; assay type: ADME, organism-based, Muscle tissue; conditions: in vivo
# [24] = Cmax in CD1 mouse muscle assessed as (12aR)-12-(Diphenylmethyl)-7-hydroxy-3,4,12,12a-tetrahydro-1H-[1,4]oxazino[3,4-c]pyrido[2,1-f ][1,2,4]triazine-6,8-dione level at 15 mg/kg, po administered as single dose measured up to 24 hrs by LC-MS/MS analysis; assay type: ADME, organism-based, Muscle tissue; parameters: dose 15 mg/kg, route oral; conditions: in vivo
smiles,measurement,setting,value
COC(=O)OCOc1c2n(ccc1=O)N([C@@H]1c3ccccc3SCc3c1ccc(F)c3F)[C@@H]1COCCN1C2=O [BALOXAVIR MARBOXIL],Tmax,[1],2 h
same,Tmax,[2],2 h
same,Kel,[3],0.2 h⁻¹
same,Cmax,[4],1188 ng/g
same,Tmax,[5],2 h
same,Cmax,[6],277 ng/g
same,Tmax,[7],0.5 h
same,Tmax,[8],2 h
COC(=O)OCOc1c2n(ccc1=O)N(C(c1ccccc1)c1ccccc1)[C@@H]1COCCN1C2=O,Activity,[9],Non-Toxic
same,Tmax,[10],0.5 h
same,MRTlast,[11],1.78 h
same,Kel,[12],0.27 h⁻¹
same,Tmax,[13],0.5 h
same,Cmax,[14],5260 ng/g
same,AUC,[15],18087 ng·h/g
same,t1/2,[16],1.69 h
same,AUC,[17],8547 ng·h/g
same,Kel,[18],0.54 h⁻¹
same,t1/2,[19],8.18 h
same,AUClast,[20],609 ng·h/g
same,AUC,[21],4713 ng·h/g
same,MRTlast,[22],1.89 h
same,Tmax,[23],0.5 h
same,Cmax,[24],2005 ng/g
